ChEMBL document CHEMBL1143038, “Highly oxygenated and unsaturated metabolites providing a diversity of hispidin class antioxidants in the medicinal mushrooms Inonotus and Phellinus” (Bioorg Med Chem, 2007)

How the values were obtained:
Type in all cases: functional
[1] = Antioxidant activity assessed as superoxide radical anion scavenging activity
[2] = test system: Radical scavenging activity; assay: Antioxidant activity assessed as DPPH radical scavenging activity
[3] = Antioxidant activity assessed as ABTS radical scavenging activity

IC50 [1] [µM]	IC50 [2] [µM]	IC50 [3] [µM]	Compound
2.2	3.7	25.9	O=C(O)/C=C/c1ccc(O)c(O)c1 [CAFFEIC ACID]
2.7	6.3	14.1	CC(=O)/C=C(O)/C(=C\c1ccc(O)c(O)c1)c1c(O)cc(/C=C/c2ccc(O)c(O)c2)oc1=O [INTERFUNGIN A]
1.8	2.5	11.1	CC(=O)/C(=C\c1ccc(O)c(O)c1)c1c(O)cc(/C=C/c2ccc(O)c(O)c2)oc1=O [INTERFUNGIN B]
3.1	3.7	11.1	COC(=O)/C(=C\c1ccc(O)c(O)c1)c1c(O)cc(/C=C/c2ccc(O)c(O)c2)oc1=O [INTERFUNGIN C]
3.4	> 100	11.6	VITAMIN E
